Literature values, collected in US20230159622A1, “COLLAGEN MIMICS” (Wisconsin Alumni Research Foundation, priority 2006, published 2023).
Marks after values point to notes of the source that are not given here.

Details: based on the extrapolation of data from solutions containing trimethylamine N-oxide; literature reference

Tm (±1° C.) of triple helix, based on extrapolation: −6^a ° C.
Substance: (Pro-Pro-Gly)7
